Assay results from US20170184604A1, “DD1ALPHA RECEPTOR AND USES THEREOF IN IMMUNE DISORDERS” (THE GENERAL HOSPITAL CORPORATION, priority 2014, published 2017).
One block for each molecule: values may come before it.

Experiments:
[1] = biological target: mouse DD1α on mouse cells (CD4+ and CD8+ T cells, thymocytes, bone marrow-derived macrophages) (mouse) (UniProt Q9D659); experiment: cell-based or functional assay
MCF7 cells = experiment: p53-mediated induction of checkpoint proteins (western blot); assay type: cell-based, human; settings: 10 μM
Description: (§1) FIGS. 6A-6E show physical association of DD1α with PD1 but not with PD-L1. (FIG. 6A) Interaction of DD1α with PD1 or DD1α. […] The bound Ig fusion proteins were detected with anti-Ig-APC. Empty vector (pcDNA3.1)-transfected cells stained with Ig proteins are shown as a negative control (gray filled) and other staining is shown as black open. (FIG. 6B) DD1α binds to both DD1α and PD1 on CD4+ T cells. Purified CD4+ T cells from Wt and DD1α−/− mice were assayed for binding to Ig fused DD1α or PD1 proteins. Cells were incubated with DD1α-Ig (open), PD1-Ig (open), or control Ig proteins (gray filled) and the bound Ig fusion proteins were detected by anti-Ig-APC. […] The bound Ig fusion proteins were detected by anti-Ig-APC. Binding amounts were determined by percentage of APC positive cells compared to control Ig protein-bound cells. (FIG. 6C) Ig-pulldown experiments show DD1α interaction with both DD1α and PD1. […] The bead bound proteins were eluted and determined by western blot analysis using anti-HA antibody (asterisks). […] The bead bound proteins were eluted and detected by western blot analysis with anti-DD1α or anti-PD1 antibody (asterisk). […] The levels of indicated proteins were analyzed by western blot analysis. Total RNAs from control siRNA or p53 siRNA transfected MCF7 cells were assessed for mRNA levels of PD1 or PD-L1 by real-time quantitative PCR. […]

[2] = tested on: wt- or DD1α−/− mouse CD4+ T cells; experiment: Ig fusion protein binding to CD4+ T cells from Wt and DD1α−/− mice
Description: as §1

DD1α = experiment: Ig fusion protein-pull down assay; assay type: binding, human
Description: FIGS. 6A-6E show physical association of DD1α with PD1 but not with PD-L1. (FIG. 6A) Interaction of DD1α with PD1 or DD1α. […] The bound Ig fusion proteins were detected with anti-Ig-APC. Empty vector (pcDNA3.1)-transfected cells stained with Ig proteins are shown as a negative control (gray filled) and other staining is shown as black open. (FIG. 6B) DD1α binds to both DD1α and PD1 on CD4+ T cells. Purified CD4+ T cells from Wt and DD1α−/− mice were assayed for binding to Ig fused DD1α or PD1 proteins. Cells were incubated with DD1α-Ig (open), PD1-Ig (open), or control Ig proteins (gray filled) and the bound Ig fusion proteins were detected by anti-Ig-APC. […] The bound Ig fusion proteins were detected by anti-Ig-APC. Binding amounts were determined by percentage of APC positive cells compared to control Ig protein-bound cells. (FIG. 6C) Ig-pulldown experiments show DD1α interaction with both DD1α and PD1. […] The bead bound proteins were eluted and determined by western blot analysis using anti-HA antibody (asterisks). (FIG. 6D) Ig fusion proteins (control Ig, DD1α-Ig, or PD1-Ig) were incubated with lysates from Nutlin-3-treated MCF7 cells and pulled down using protein A/G agarose. The bead bound proteins were eluted and detected by western blot analysis with anti-DD1α or anti-PD1 antibody (asterisk). (FIG. 6E) p53-mediated induction of PD1 and PD-L1. MCF7 cells were treated by Nutlin-3 (10 μM) for 1 to 3 days. MCF7 cells were transfected with control siRNA or p53 siRNA for 24 hours and treated with CPT (500 nM) or DMSO (control) for 1 and 2 days. The levels of indicated proteins were analyzed by western blot analysis. Total RNAs from control siRNA or p53 siRNA transfected MCF7 cells were assessed for mRNA levels of PD1 or PD-L1 by real-time quantitative PCR. PD1 or PD-L1 mRNA levels were normalized to 36B4 expression and shown as mean±SD (n=3). Protein levels of PD1 and PD-L1 were examined in EJ-p53tet cells in the absence or presence of tetracycline (tet), ZR75-1 cells treated with CPT (500 nM), or A375 cells exposed to 13 Gy ionizing irradiation for the indicated times.
Ig fusion proteins (control Ig, DD1α-Ig, or PD1-Ig) were incubated with lysates from Nutlin-3-treated MCF7 cells and pulled down using proten A/G agarose. The bead bound proteins were eluted and detected by western blot analysis with anti-DD1α or anti-PD1 antibody.
Based on the results that both PD-1 and DD1α receptors on T cells contribute to the co-inhibitory roles for DD1α(FIG. 5), it was tested whether DD1α could physically and functionally associate with PD-1 receptor. […] To confirm the specificity of this interaction, the inventors carried out Ig fusion protein-pull down assays using lysates from PD-1, DD1α, or TIM3-transfected 293T cells. […]

[3] = tested on: Jurkat cells expressing DD1α receptor; experiment: Ig fusion protein binding to Jurkat cells; settings: several concentrations; anti-Ig-APC detection
Description: Jurkat cells overexpressing DD1alpha (transfected with DD1alpha cDNA) or control Jurkat cells were assayed for binding to Ig-fused DD1α or PD-1 proteins. Cells were incubated with several different concentrations of DD1α-Ig (left panels) or PD1-Ig (right panels), and the bound Ig fusion proteins were detected by anti-Ig-APC. Binding amounts were determined by percentage of APC positive cells.

[4] = tested on: CD4+ or CD8+ T cells from wt- or DD1α−/− mice; experiment: Mouse T cell activation assay (CFSE proliferation); assay type: cell-based
Description: Enriched CD4+ and CD8+ T cells from Wt and DD1α−/− mice were stimulated, with 2.5 μg/ml anti-CD3 alone or together with DD1α-Ig or control Ig. The proliferations of CD4+ T cells (top graphs) or CD8+ T cells (bottom graphs) were determined by the percentage of CFSE-diluted CD8+ cells on day 3. The levels of cytokines (IFN-γ and TNF-α) in culture supernatant on day 2 were analyzed by ELISA. The results represent mean±SD from three experiments.
The inventors have discovered that DD1αregulates T cell activation through DD1α on T cells. […] The proliferations of CD4+ T cells were determined by percentage of CFSE-diluted CD4+ cells on day 3 and IFN-γ and levels in culture supernatants on day 2 were analyzed by ELISA. […] The proliferations of CD8+ T cells were determined by percentage of CD8+ T cells containing diluted CFSE signal on day 3. The cytokine levels in culture supernatant were analyzed by ELISA on day 2.
The amount of Ig protein was kept constant at 10 μg/ml by the addition of control Ig protein. Human CD4+ or CD8+ T cells were purified from freshly isolated PBMCs using CD4+ T Cell Isolation Kit II, human or CD8+ T Cell Isolation Kit, human (Miltenyi Biotec). Mouse CD4+ and CD8+ T cells were purified from splenocytes freshly isolated from mice using CD4+ T Cell Isolation Kit II, mouse or CD8a+ T Cell Isolation Kit II, mouse (Miltenyi Biotec). Purity was confirmed to be over 90% by flow cytometry. The T cells were labeled with 1 μM CFSE, quenched by cold FBS and incubated in the anti-CD3 & Ig proteins-coated plates. On day 2 after stimulation, supernatant was collected and cytokines were assayed by ELISA. On day 3, cells were stained with anti-CD4-APC (OKT4, eBioscience for human CD4+ T cells; RM4-5, eBioscience for mouse CD4+ T cells) or anti-CD8-APC (SK1, eBioscience for human CD8+ T cells; 53-6.7, eBioscience for mouse CD8+ T cells) and then analyzed for CFSE dilution by flow cytometry.

[5] = biological target: T1, DD1α-Ig fusion protein (the extracellular region of DD1α fused with the immunoglobulin G Fc segment) (human, UniProt Q9H7M9 33-194); experiment: DD1α-Ig-coated beads on transfected 293T cells
T1 construct: also called DD1α-Fc fusion soluble protein; Fc-tagged soluble DD1α protein; not shown: mouse IgG-Fc region of the pCMV6-AC-FC vector (OriGene)
Source text: Scale bar, 50 μm. […] Scale bar, 100 μm. […] Scale bar, 50 μm.

His-DD1α (33-194) = biological target: T2, His-DD1α (33-194) (human, UniProt Q9H7M9 33-194); experiment: GST pull-down, anti-His immunoblot
T2 construct: not shown: His tag of the pRSET vector (Invitrogen)

Chain of mouse DD1α on mouse cells (CD4+ and CD8+ T cells, thymocytes, bone marrow-derived macrophages) (mouse) (Q9D659 33-308): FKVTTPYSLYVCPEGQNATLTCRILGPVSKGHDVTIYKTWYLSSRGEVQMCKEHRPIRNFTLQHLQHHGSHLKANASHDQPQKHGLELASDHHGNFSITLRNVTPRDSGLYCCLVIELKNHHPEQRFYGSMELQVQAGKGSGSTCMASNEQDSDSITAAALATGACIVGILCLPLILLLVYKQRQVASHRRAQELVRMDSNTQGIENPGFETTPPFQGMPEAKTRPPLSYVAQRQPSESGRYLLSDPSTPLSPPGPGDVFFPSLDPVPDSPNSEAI

inhibition of anti-CD3-induced proliferation of mouse CD4+ T cells [1]: 45%
reversal of PD-1-Ig-mediated inhibition in DD1α-/- CD4+ T cells [1]: 30%
Molecule: PD-1-Ig as used on mouse T cells (Fc fusion)

Molecule: COc1ccc(C2=N[C@@H](c3ccc(Cl)cc3)[C@@H](c3ccc(Cl)cc3)N2C(=O)N2CCNC(=O)C2)c(OC(C)C)c1 [Nutlin-3]
CTLA-4 and ICOSL protein levels (MCF7 cells): did not respond
PD-1 and PD-L1 protein levels (MCF7 cells): induced

inhibition of anti-CD3-induced proliferation of DD1α-/- mouse CD4+ or CD8+ T cells [1]: 30%
inhibition of anti-CD3-induced proliferation of Wt mouse CD4+ or CD8+ T cells [1]: 50%
Molecule: DD1α-Ig as used on mouse T cells (Fc fusion)

pull down of endogenous DD1α receptor (DD1α; lysates of Nutlin-3-treated MCF7 cells): detected
Molecule: PD-1-Ig: Recombinant human or mouse PD-1-Ig fusion protein from R&D Systems [reference compound]
binding to the surface of DD1α−/− CD4+ T cells compared with wt-CD4+ T cells [2]: significantly lower
pull down of DD1α (DD1α; lysates from transfected 293T cells): pulled down
binding to Jurkat cells expressing DD1α receptor [3]: bind
reversal of PD-1-Ig-mediated inhibition of CD4+ T cell stimulation ([4]; DD1α−/− CD4+ T cells): ~30%
inhibition of anti-CD3-induced CD4+ T cell proliferation ([4]; mouse CD4+ T cells, wt): ~45%

binding result [5]: no binding
B1: DD1α-ΔIgV (immunoglobulin V domain (aa 45-168)-deleted mutant) expressed on transfected cells (receptor)
chain: FKVATPYSLYVCQTGKDAPSNCVVYPSSSQDSENITAAALATGACIVGILCLPLILLLVYKQRQAASNRRAQELVRMDSNIQGIENPGFEASPPAQGIPEAKVRHPLSYVAQRQPSESGRHLLSEPSTPLSPPGPGDVFFPSLDPVPDSPNFEVI
notes: signal peptide 1-32 left out; also called mutant lacking the IgV domain; IgV-deleted DD1α

binding result (His-DD1α (33-194)): no binding
B2: GST-DD1α-ΔIgV (33-311, ΔIgV) (other)
chain: B1 chain
notes: also called IgV-deleted mutant; IgV-deleted DD1α (GST fusion); not shown: N-terminal GST tag and linker of pGEX-6P-1

binding result (His-DD1α (33-194)): no binding
B3: GST-DD1α (215-311), the cytoplasmic region (other)
chain: VYKQRQAASNRRAQELVRMDSNIQGIENPGFEASPPAQGIPEAKVRHPLSYVAQRQPSESGRHLLSEPSTPLSPPGPGDVFFPSLDPVPDSPNFEVI
notes: also called the cytoplasmic region of DD1α (GST fusion); not shown: glutathione S-transferase tag of the pGEX-6P-1 vector
